Where two headings read alike, the source gives them in different places.
Assays:
[1] = Metabolic stability assay; format: in vitro ADME; conditions: percentage metabolic stability in human liver microsomes
Procedure: The metabolic stability assay was performed in Wuxi. 1 μM, 15 min. The kinase selectivity testing was performed in ProQinase GmbH, Germany.

[2] = system: tumor cell lines; experiment: Combination assay (MTT in vitro cell proliferation, combination index); format: cell-based
[3] = molecular target: T1, PIM-2 (Homo sapiens, UniProt Q9P1W9); experiment: PIM-2 biochemical assay (ADP Hunter); conditions: semi-quantitative class; read-out: PIM2 IC50;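 also: recombinant N-terminally His-tagged human enzyme, kinase activity quantified by detection of ADP formed as the direct reaction product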
T1 construct: histidine tag (N); made in house
T1 sequence (Q9P1W9 whole entry): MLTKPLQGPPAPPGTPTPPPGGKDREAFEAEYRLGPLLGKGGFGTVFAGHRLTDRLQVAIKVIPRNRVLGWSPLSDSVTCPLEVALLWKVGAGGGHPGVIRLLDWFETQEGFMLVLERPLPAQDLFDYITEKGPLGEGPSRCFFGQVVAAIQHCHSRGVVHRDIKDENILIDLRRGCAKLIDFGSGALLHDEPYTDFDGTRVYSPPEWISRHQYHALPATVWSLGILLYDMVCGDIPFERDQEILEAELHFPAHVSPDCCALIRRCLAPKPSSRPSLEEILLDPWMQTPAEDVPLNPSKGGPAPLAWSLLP

[4] = molecular target: T2, FLT3 (Homo sapiens, UniProt P36888); experiment: FLT3 biochemical assay (ADP Hunter);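 also: FLT3 enzymatic activity quantified through the ADP produced by the kinase reaction, detected with an ADP Hunter readout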
T2 sequence (P36888 27-993): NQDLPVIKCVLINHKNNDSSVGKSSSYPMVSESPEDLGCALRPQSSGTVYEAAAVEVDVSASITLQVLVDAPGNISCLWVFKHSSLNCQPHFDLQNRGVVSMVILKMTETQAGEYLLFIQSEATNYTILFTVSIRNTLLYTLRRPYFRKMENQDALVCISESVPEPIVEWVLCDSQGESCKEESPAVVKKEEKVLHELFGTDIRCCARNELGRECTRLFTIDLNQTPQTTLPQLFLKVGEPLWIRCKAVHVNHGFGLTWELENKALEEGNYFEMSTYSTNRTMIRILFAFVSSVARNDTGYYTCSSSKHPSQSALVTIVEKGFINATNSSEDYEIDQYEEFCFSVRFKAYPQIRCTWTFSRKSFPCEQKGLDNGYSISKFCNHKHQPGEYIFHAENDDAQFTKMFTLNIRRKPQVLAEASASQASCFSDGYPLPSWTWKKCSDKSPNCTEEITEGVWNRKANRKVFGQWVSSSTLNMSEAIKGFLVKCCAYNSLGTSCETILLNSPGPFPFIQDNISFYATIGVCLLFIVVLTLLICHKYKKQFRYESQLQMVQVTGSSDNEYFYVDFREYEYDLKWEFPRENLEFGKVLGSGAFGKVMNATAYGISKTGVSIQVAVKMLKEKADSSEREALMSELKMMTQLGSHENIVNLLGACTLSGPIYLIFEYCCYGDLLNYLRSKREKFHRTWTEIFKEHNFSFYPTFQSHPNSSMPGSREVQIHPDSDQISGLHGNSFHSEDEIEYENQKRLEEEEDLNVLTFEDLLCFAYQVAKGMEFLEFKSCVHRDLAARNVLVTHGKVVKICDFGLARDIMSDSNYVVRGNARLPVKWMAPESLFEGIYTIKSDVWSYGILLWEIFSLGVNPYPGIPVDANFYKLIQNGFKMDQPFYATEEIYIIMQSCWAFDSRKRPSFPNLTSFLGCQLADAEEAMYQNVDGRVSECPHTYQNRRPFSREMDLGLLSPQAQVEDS

[5] = molecular target: T3, PIM-3 (Homo sapiens, UniProt Q86V86); experiment: PIM-3 biochemical assay (ADP Hunter); conditions: read-out: PIM3 IC50;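 also: kinase activity read out as the quantity of ADP generated by the enzyme reaction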
T3 construct: purchased Millipore 14-738

[6] = system: panel of 24 kinases; experiment: Kinase selectivity testing (percentage inhibition of 24 kinases at 1 μM); format: biochemical; conditions: proquinase; for % inhibiton at 1 uM AKT2: AKT2, 1 uM; for % inhibiton at 1 uM CHK1: CHK1, 1 uM; for % inhibiton at 1 uM CK1 Alpha 1: CK1 Alpha 1, 1 uM; for % inhibiton at 1 uM FGFR1: FGFR1, 1 uM; for % inhibiton at 1 uM JAK2: JAK2, 1 uM; for % inhibiton at 1 uM MEK1: MEK1, 1 uM; for % inhibiton at 1 uM PAK1: PAK1, 1 uM; for % inhibiton at 1 uM PDK1: PDK1, 1 uM; for % inhibiton at 1 uM RPS5 KA1: RPS5 KA1, 1 uM; for % inhibiton at 1 uM SGK1: SGK1, 1 uM
[7] = molecular target: T4, PIM-1 (Homo sapiens, UniProt P11309); experiment: PIM-1 biochemical assay (ADP Hunter); conditions: read-out: PIM1 IC50;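 also: recombinant human PIM-1 carrying a C-terminal His tag, kinase activity quantified via ADP formed as the direct enzymatic product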
T4 construct: histidine tag (C); made in house
T4 sequence (P11309 whole entry): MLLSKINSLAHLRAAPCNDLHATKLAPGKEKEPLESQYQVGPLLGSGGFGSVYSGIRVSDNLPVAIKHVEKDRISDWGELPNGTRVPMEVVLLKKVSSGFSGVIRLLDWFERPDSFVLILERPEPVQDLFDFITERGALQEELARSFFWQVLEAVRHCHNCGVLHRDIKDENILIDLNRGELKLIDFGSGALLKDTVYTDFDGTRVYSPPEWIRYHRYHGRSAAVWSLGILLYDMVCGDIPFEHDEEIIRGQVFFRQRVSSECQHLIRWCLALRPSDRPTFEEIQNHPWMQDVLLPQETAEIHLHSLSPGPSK

[8] = actual IC50 value in parentheses
[9] = Jeko-1, combined with lapatinib
[10] = SKMel19, combined with GDC-0879

Row | Structure (SMILES) | Stability in HLM [1] [%] | IC50 [3] [nM] | IC50 ([4]; semi-quantitative class) [nM] | IC50 ([5]; semi-quantitative class) [nM] | % inhibiton at 1 uM B_RAF V600E [6] [%] | % inhibiton at 1 uM CK1 Alpha 1 [6] [%] | % inhibiton at 1 uM DYRK 1A [6] [%] | % inhibiton at 1 uM EGF_R [6] [%] | % inhibiton at 1 uM FAK [6] [%] | % inhibiton at 1 uM FGFR1 [6] [%] | % inhibiton at 1 uM IGF1_R [6] [%] | % inhibiton at 1 uM IKK BETA [6] [%] | % inhibiton at 1 uM INS_R [6] [%] | % inhibiton at 1 uM JAK2 [6] [%] | % inhibiton at 1 uM KIT [6] [%] | % inhibiton at 1 uM MEK1 [6] [%] | % inhibiton at 1 uM MET [6] [%] | % inhibiton at 1 uM PDGFR Alpha [6] [%] | % inhibiton at 1 uM RPS5 KA1 [6] [%] | % inhibiton at 1 uM SGK1 [6] [%] | further results
1 | FC(F)(F)Oc1cccc(-n2nnc3ccc(NCC4CCNCC4)nc32)c1 [2-21] | 97.95 |  |  |  |  |  |  |  |  |  |  |  |  |  |  |  |  |  |  |  | 
2 | FC(F)(F)Oc1cccc(-n2nnc3ccc(N4CC5(CCNCC5)C4)nc32)c1 [2-49] |  | 100 to 1000 | > 1000 | 100 to 1000 |  |  |  |  |  |  |  |  |  |  |  |  |  |  |  |  | Synergy ([2]; NCIH23, combined with lapatinib): + (0.7 < CI < 1.2 (+))
3 | FC(F)(F)Oc1cccc(-n2nnc3ccc(NCC4CC5(CCNCC5)C4)nc32)c1 [2-67] | 92.15 |  |  |  | 11 | 0 | 18 | 13 | 27 | 0 | 25 | 0 | 5 | 0 | 58 | 0 | 2 | 49 | 11 | 7 | % inhibiton at 1 uM AKT2 [6]: 0%; % inhibiton at 1 uM CDK8 CYCC [6]: 0%; % inhibiton at 1 uM CHK1 [6]: 11%; % inhibiton at 1 uM PAK1 [6]: 3%; % inhibiton at 1 uM PDK1 [6]: 0%; % inhibiton at 1 uM SRC [6]: 16%
4 | FC(F)(F)Oc1cccc(-n2nnc3ccc(N4CCCC5(CCCN5)CC4)nc32)c1 (centres unmarked) [2-65] | 88.9 | 100 to 1000 | < 100 | < 100 | 3 | 0 | 12 | 12 | 31 | 22 | 21 | 0 | 12 | 8 | 63 | 13 | 11 | 57 | 10 | 0 | IC50 [7, 8]: 2 nM; IC50 ([7]; semi-quantitative class): < 100 nM; % inhibiton at 1 uM AKT2 [6]: 0%; % inhibiton at 1 uM CDK8 CYCC [6]: 2%; % inhibiton at 1 uM CHK1 [6]: 7%; % inhibiton at 1 uM PAK1 [6]: 0%; % inhibiton at 1 uM PDK1 [6]: 0%; % inhibiton at 1 uM SRC [6]: 33%; IC50 [4, 8]: 28 nM; IC50 [5, 8]: 6 nM
5 | FC(F)(F)Oc1cccc(-n2nnc3ccc(NCC4CCN(Cc5ccncc5)CC4)nc32)c1 [2-25] |  | > 1000 | > 1000 | < 100 |  |  |  |  |  |  |  |  |  |  |  |  |  |  |  |  | Combination Index (CI) [2, 9]: 0.387; Synergy [2, 9]: ++ (0.3 < CI < 0.7 (++)); Combination Index (CI) ([2]; MV4:11, combined with GDC-0941): 0.311; Synergy ([2]; MV4:11, combined with GDC-0941): ++ (0.3 < CI < 0.7 (++)); Combination Index (CI) [2, 10]: 0.87; Synergy [2, 10]: + (0.7 < CI < 1.2 (+)); IC50 [7, 8]: 34 nM; IC50 ([7]; semi-quantitative class): < 100 nM; IC50 [5, 8]: 22 nM
6 | O[C@H]1CC[C@@H](Nc2ccc3nnn(-c4cccc(OC(F)(F)F)c4)c3n2)CC1 [2-68] |  |  |  |  |  |  |  |  |  |  |  |  |  |  |  |  |  |  |  |  | Synergy [2, 9]: ++ (0.3 < CI < 0.7 (++)); Synergy ([2]; MV4:11, combined with GDC-0941): ++ (0.3 < CI < 0.7 (++))
7 | OC1CCC(Nc2ccc3nnn(-c4cccc(OC(F)(F)F)c4)c3n2)CC1 (stereo in doubt) [2-47] | 43.6 |  |  |  | 6 | 2 | 3 | 9 | 6 | 0 | 8 | 4 | 7 | 15 | 2 | 0 | 0 | 0 | 0 | 3 | 
8 | FC(F)(F)Oc1cccc(-n2nnc3ccc(NC4CC5(CCNCC5)C4)nc32)c1 [2-66] | 91.1 |  |  |  | 15 | 0 | 30 | 18 | 19 | 4 | 16 | 5 | 7 | 3 | 30 | 0 | 3 | 12 | 19 | 2 | % inhibiton at 1 uM AKT2 [6]: 0%; % inhibiton at 1 uM CDK8 CYCC [6]: 3%; % inhibiton at 1 uM CHK1 [6]: 13%; % inhibiton at 1 uM PAK1 [6]: 11%; % inhibiton at 1 uM PDK1 [6]: 4%; % inhibiton at 1 uM SRC [6]: 28%
9 | CN1CCC(CNc2nc3c(cc2Cl)nnn3-c2cccc(OC(F)(F)F)c2)CC1 [2-55, [6-chloro-3-(3-trifluoromethoxy-phenyl)-3H-[1,2,3]triazolo[4,5-b]pyridin-5-yl]-(1-methyl-piperidin-4-ylmethyl)-amine] |  | > 1000 | 100 to 1000 | > 1000 |  |  |  |  |  |  |  |  |  |  |  |  |  |  |  |  | Combination Index (CI) [2, 9]: 0.15; Synergy [2, 9]: +++ (0.1 < CI < 0.3 (+++)); Combination Index (CI) ([2]; MV4:11, combined with GDC-0941): 0.35; Synergy ([2]; MV4:11, combined with GDC-0941): ++ (0.3 < CI < 0.7 (++)); IC50 [7, 8]: 90 nM; IC50 ([7]; semi-quantitative class): < 100 nM
10 | Nc1ccn([C@@H]2O[C@H](CO)[C@@H](O)C2(F)F)c(=O)n1 [Gemcitabine, 4-amino-1-[3,3-difluoro-4-hydroxy-5-(hydroxymethyl)tetrahydrofuran-2-yl]-1H-pyrimidin-2-one, reference compound] |  |  |  |  |  |  |  |  |  |  |  |  |  |  |  |  |  |  |  |  | EC50 ([2]; Homo sapiens, MIA PaCa-2, MiaPaca-2, pancreas, chemotherapeutic alone, read-out: Chemo EC50): 50 nM
